Laboratory results as given in US11123398B2, “Chemotherapeutic combinations of cationic antimicrobial peptides and chemotherapeutics” (LYTIX BIOPHARMA AS, priority 2014, dated 2021).
Non-standard residues stand in square brackets, D forms with d. Residues, ends and D or L forms follow the SMILES beside them. Dip = N[C@H](C(=O)O)C(c1ccccc1)c1ccccc1

What was measured:
A375 cells [1] = assay: Release of cytochrome-C (ELISA); type: cell-based, human; settings: 35 μM, 5, 15, 45 min
Description: A375 cells were seeded as with HMGB1 studies, and treated with 35 μM for different time points (5, 15, 45). Supernatants were collected and concentrated as with HMGB1 studies, and samples from the supernatants were analyzed using a 4.5 hour solid form Cytochrome C—Elisa kit (R&D Systems, USA, #DCTCO) following the manufacturer's description. Shortly thereafter, a 50% diluted sample was analyzed and the optical density was determined using a microplate reader set at 450 nm, and this reading was then subtracted from the reading at 540 nm. A standard curve was generated for each set of samples assayed. Samples were run in four parallels, and the cytochrome-c released into the supernatant was expressed as a fold over the level of cytochrome-c in the supernatant of untreated cells.

A375 cells [2] = assay: TEM electron microscopy, A375; type: cell-based, human
Description: A375 cells were seeded at 1×10^5 cells per well in 6-well plates and allowed to grow for three days to optimize membrane structures in the culture, and the media was changed on the second day. Cells were washed twice in serum-free RPMI before being treated with LTX-315 dissolved in serum-free RPMI at 5, 10 and 25 μg/ml, with serum-free RPMI as a negative control. Cells were then washed with PBS twice before fixation for 24 hours in 4° C. with 4% formaldehyde and 1% gluteralaldehyde in a Hepes buffer at pH 7.8. Dehydration and post-fixation protocols included incubation in a 5% buffered tannic acid and incubation in a 1% osmium-reduced ferrocyanide. Ultrathin sections were prepared, and uranyl acetate (5%) and Reynolds's lead citrate were used for staining and contrasting. Samples were examined on a JEOL JEM-1010 transmission electron microscope, and images were taken with an Olympus Morada side-mounted TEM CCD camera (Olympus soft imaging solutions, GmbH, Germany).

human red blood cells = assay: Haemolytic activity in vitro; type: cell-based; settings: for Mean cell death (%): 1 h 37° C., 1% RBC
Description: Freshly collected human blood was centrifuged at 1500 rpm for 10 minutes in order to isolate the red blood cells. The red blood cells (RBC) were washed three times with PBS [35 mM phosphate buffer with 150 mM NaCl, pH 7.4] by centrifugation at 1500 rpm for 10 minutes, and adjusted to 10% haematocrit with PBS. LTX-315 solutions were added to give a final concentration range of the peptide from 1200 μg/ml to 1 μg/ml and an RBC concentration of 1%. The resulting suspension was incubated with agitation for one hour at 37° C. After incubation the suspension was centrifuged at 4000 rpm for 5 minutes, and the released haemoglobin were monitored by measuring the absorbance of the supernatant at 405 nm. PBS was used as negative control and assumed to cause no haemolysis. 0.1% Triton was used as positive control and assumed to cause complete haemolysis.
Released haemoglobin was monitored by measuring the absorbance of the supernatant at 405 nm, and percent haemolysis was calculated by the equation: % Haemolysis=[(A405 LTX-315−A405 PBS)/(A405 0.1% Triton X-100−A405 PBS)]×100
LTX-315 concentration corresponding to 50% haemolysis (EC50) was determined from a dose-response curve.

HL-60/ADR = assay: MTS cytotoxicity assay, HL-60/ADR; type: cell-based, human; settings: IC50 resistant / IC50 sensitive line; doxorubicin resistance
Description: Tumor cells were plated in 96-well flat-bottom microtitration plates (Nunc, Dutscher, Brumath, France) and incubated at 37° C. for 24 hours before treatment in 190 μl of drug-free culture medium supplemented or not with 10% FBS for adherent or suspension growing cell lines, respectively.
The adherent cell lines were washed once with 200 μl FBS-free culture medium before treatment. Tumor cells were incubated for 4 hours with 10 concentrations of compounds in ¼ dilution step with a top dose of 400 μM (range 4×10^−4 to 4×10^−10 M), with 1% (final concentration) Triton X-100 as positive control and FBS-free culture medium as negative control. The cells (190 μl) were incubated in a 200 μl final volume of FBS-free culture medium containing test substances at 37° C. under 5% CO2.
Three independent experiments were performed, each concentration being tested in quadruplicate. Control cells were treated with vehicle alone. At the end of treatments, the cytotoxic activity was evaluated by a MTS assay (see § 3.3.).
Like MTT, MTS is bioreduced by cells into a formazan product that is directly soluble in culture medium without processing, unlike MTT.
At the end of the cells treatment, 40 μl of a 0.22 μm filtered freshly combined solution of MTS (20 ml at 2 mg/ml, Ref G1111, Batch 235897, Exp March 2009, Promega, Charbonnières, France) and PMS (1 ml at 0.92 mg/ml, Ref P9625, Batch 065K0961, Sigma) in Dulbecco's Phosphate Buffered Saline (DPBS, Ref 17-513Q, Batch 6MB0152, Cambrex), were added in each well. Culture plates were incubated for 2 h at 37° C. Absorbency (OD) were measured at 490 nm in each well using VICTOR^3™ 1420 multilabeled counter (Wallac, PerkinElmer, Courtaboeuf, France).
IC50: drug concentration to obtain a 50% inhibition of cell proliferation.
The dose-response curves were plotted using XLFit 3 (IDBS, United Kingdom). The IC50 determination values were calculated using the XLFit 3 software from semi-log curves. Individual IC50 determination values as well as mean and SD values were generated.
Resistance index was calculated using the following formula: […]
Resistance index was calculated for each compound for each couple of sensitive and resistant cell lines. Individual resistance index was calculated when IC50 values of both sensitive and corresponding resistant cell lines were determined within same experiment. In addition, resistance index was also calculated ratio of mean IC50 values obtained during three independent experiments.

NCCCC[C@H](NC(=O)[C@@H](NC(=O)[C@H](Cc1c[nH]c2ccccc12)NC(=O)[C@H](CCCCN)NC(=O)[C@H](CCCCN)NC(=O)[C@H](Cc1c[nH]c2ccccc12)NC(=O)[C@H](Cc1c[nH]c2ccccc12)NC(=O)[C@H](CCCCN)NC(=O)[C@@H](N)CCCCN)C(c1ccccc1)c1ccccc1)C(N)=O [LTX-315, K-K-W-W-K-K-W-Dip-K-NH2] (H-KKWWKKW[Dip]K-NH2)
Cytochrome-C in the supernatant compared to untreated control cells (A375 cells [1]): three times more | Cells displaying vacuolization (TEM) (A375 cells [2]; 3.5 μM, 60 minutes): approximately 20% | Number of necrotic cells (TEM) (A375 cells [2]; 3.5 μM, 60 minutes): less than 5% | Cells displaying vacuolization (TEM) (A375 cells [2]; 17 μM, 60 min): 4% | Cells with necrotic morphology, loss of plasma membrane integrity (TEM) (A375 cells [2]; 17 μM, 60 min): approximately 40% | Mean cell death (%) (human red blood cells; LTX-315 1 μg/ml): 0.0% | Mean cell death (%) (human red blood cells; LTX-315 10 μg/ml): 0.6% | Mean cell death (%) (human red blood cells; LTX-315 50 μg/ml): 1.6% | Mean cell death (%) (human red blood cells; LTX-315 100 μg/ml): 3.6% | Mean cell death (%) (human red blood cells; LTX-315 500 μg/ml): 20.4% | Mean cell death (%) (human red blood cells; LTX-315 1000 μg/ml): 38.2% | Mean cell death (%) (human red blood cells; LTX-315 1200 μg/ml): 37.7% | Mean EC50 (50% haemolysis) (human red blood cells; human red blood cells): greater than 1200 μg/ml | EC50 (human red blood cells; human red blood cells, read-out: Mean EC50 (50% haemolysis)): > 833 µM | IC50 (human red blood cells; red cells of human): ≥ 833 µM | Resistance index (RI), HL-60/ADR (HL-60/ADR): 1.45
